Assay results taken from patent publication US9822131B2, “Certain chemical entities, compositions and methods” (Intellikine LLC, priority 2008, dated 2017).
pEC50: −log10 of the molar value.

These compounds were tested on Balb/c splenic B cells (assay: B cell activation and proliferation assay (Alamar Blue)). Conditions: Mus musculus, read-out: B cell proliferation EC50.
Type: cell-based
Description: The assay is performed in a 96 well microtiter plate using Alamar Blue reduction. Balb/c splenic B cells are purified over a Ficoll-Paque™ PLUS gradient followed by magnetic cell separation using a MACS B cell Isolation Kit (Miletenyi). Cells are plated in 90 ul at 50,000 cells/well in B Cell Media (RPMI+10% FBS+Penn/Strep+50 uM bME+5 mM HEPES). A compound disclosed herein is diluted in B Cell Media and added in a 10 ul volume. Plates are incubated for 30 min at 37 C and 5% CO2 (0.2% DMSO final concentration). A 50 ul B cell stimulation cocktail is then added containing either 10 ug/ml LPS or 5 ug/ml F(ab′)2 Donkey anti-mouse IgM plus 2 ng/ml recombinant mouse IL4 in B Cell Media. […] A volume of 15 uL of Alamar Blue reagent is added to each well and plates are incubated for 5 hours at 37 C and 5% CO2. Alamar Blue fluoresce is read at 560Ex/590Em, and IC50 or EC50 values are calculated using GraphPad Prism 5.
`Cc1cccc2cc(Cn3nc(-c4ccc(F)c(O)c4)c4c(N)ncnc43)n(C(C)C)c(=O)c12` [Compound 67] was tested, and the pEC50 was > 7.00. For `Cc1cccnc1-n1c(Cn2nc(-c3ccc(F)c(O)c3)c3c(N)ncnc32)cc2cccc(C)c2c1=O` [Compound 68], the pEC50 was > 7.00. For `Cc1cccnc1-n1c(Cn2nc(C#C[C@@H](C)O)c3c(N)ncnc32)cc2cccc(C)c2c1=O` [Compound 69], the pEC50 was > 6.00. For `COc1ccccc1-n1c(Cn2nc(I)c3c(N)ncnc32)cc2cccc(C)c2c1=O` [Compound 70], the pEC50 was > 6.00. In the case of `Cc1cccc2cc(Cn3nc(-c4ccc(Cl)c(O)c4)c4c(N)ncnc43)n(C3CCCC3)c(=O)c12` [Compound 71], the pEC50 was > 5.00. In the case of `Cc1cccnc1-n1c(Cn2nc(-c3ccc(Cl)c(O)c3)c3c(N)ncnc32)cc2cccc(C)c2c1=O` [Compound 72], the pEC50 was > 7.00. In the case of `Cc1cccnc1-n1c(Cn2nc(-c3cccc(O)c3)c3c(N)ncnc32)cc2cccc(C)c2c1=O` [Compound 73], the pEC50 was > 7.00. In the case of `COc1ccccc1-n1c(Cn2nc(-c3cccc(O)c3)c3c(N)ncnc32)cc2cccc(C)c2c1=O` [Compound 74], the pEC50 was > 7.00. `Cc1cccc2cc(Cn3nc(I)c4c(N)ncnc43)n(-c3ccccc3C(C)C)c(=O)c12` [Compound 75] was tested, and the pEC50 was > 7.00. In the case of `Cc1cccc2cc(Cn3nc(I)c4c(N)ncnc43)n(-c3ccccc3Cl)c(=O)c12` [Compound 76], the pEC50 was > 6.00. `CCc1ccccc1-n1c(Cn2nc(I)c3c(N)ncnc32)cc2cccc(C)c2c1=O` [Compound 77] was tested, and the pEC50 was > 6.00. For `Cc1ccncc1-n1c(Cn2nc(I)c3c(N)ncnc32)cc2cccc(C)c2c1=O` [Compound 78], the pEC50 was > 6.00. For `Cc1cccc2cc(Cn3nc(I)c4c(N)ncnc43)n(-c3ccccc3O)c(=O)c12` [Compound 79], the pEC50 was > 6.00. `COc1ccccc1-n1c(Cn2nc(C#C[C@@H](C)O)c3c(N)ncnc32)cc2cccc(C)c2c1=O` [Compound 80] was tested, and the pEC50 was > 6.00. For `Cc1cccc2cc(Cn3nc(-c4cccc(O)c4)c4c(N)ncnc43)n(-c3ccccc3O)c(=O)c12` [Compound 81], the pEC50 was > 7.00. With `Cc1cccc2cc(Cn3nc(-c4cccc(O)c4)c4c(N)ncnc43)n(-c3ccccc3C(C)C)c(=O)c12` [Compound 82] the pEC50 was > 7.00. In the case of `Cc1cccc2cc(Cn3nc(C#C[C@@H](C)O)c4c(N)ncnc43)n(-c3ccccc3C(C)C)c(=O)c12` [Compound 83], the pEC50 was > 7.00. `COc1ccccc1-n1c(Cn2nc(-c3cc(O)cc(F)c3)c3c(N)ncnc32)cc2cccc(C)c2c1=O` [Compound 84] was tested, and the pEC50 was > 7.00. `Cc1ccccc1-n1c(Cn2nc(C#C[C@H](C)O)c3c(N)ncnc32)cc2cccc(C)c2c1=O` [Compound 85] was tested, and the pEC50 was > 6.00. In the case of `Cc1cccc2cc(Cn3nc(I)c4c(N)ncnc43)n(C3CC3)c(=O)c12` [Compound 86], the pEC50 was > 6.00. For `Cc1cccc2cc(Cn3nc(I)c4c(N)ncnc43)n(C3CCCCC3)c(=O)c12` [Compound 87], the pEC50 was > 5.00. With `CCc1ccccc1-n1c(Cn2nc(-c3cccc(O)c3)c3c(N)ncnc32)cc2cccc(C)c2c1=O` [Compound 88] the pEC50 was > 7.00. For `CCc1ccccc1-n1c(Cn2nc(-c3cc(O)cc(F)c3)c3c(N)ncnc32)cc2cccc(C)c2c1=O` [Compound 89], the pEC50 was > 7.00. For `Cc1cccc2cc(Cn3nc(-c4cc(O)cc(F)c4)c4c(N)ncnc43)n(-c3ccccc3O)c(=O)c12` [Compound 90], the pEC50 was > 7.00. With `Cc1cccc2cc(Cn3nc(C#C[C@@H](C)O)c4c(N)ncnc43)n(-c3ccccc3O)c(=O)c12` [Compound 91] the pEC50 was > 6.00. `Cc1cccc2cc(Cn3nc(-c4cc(O)cc(F)c4)c4c(N)ncnc43)n(-c3ccccc3C(C)C)c(=O)c12` [Compound 95] was tested, and the pEC50 was > 7.00. With `Cc1cccc2cc(Cn3nc(-c4cccc(O)c4)c4c(N)ncnc43)n(-c3ccccc3Cl)c(=O)c12` [Compound 96] the pEC50 was > 7.00. With `Cc1cccc2cc(Cn3nc(-c4cc(O)cc(F)c4)c4c(N)ncnc43)n(-c3ccccc3Cl)c(=O)c12` [Compound 97] the pEC50 was > 7.00. For `Cc1cccc2cc(Cn3nc(C#C[C@@H](C)O)c4c(N)ncnc43)n(-c3ccccc3Cl)c(=O)c12` [Compound 98], the pEC50 was > 6.00. `CCc1ccccc1-n1c(Cn2nc(C#C[C@@H](C)O)c3c(N)ncnc32)cc2cccc(C)c2c1=O` [Compound 99] was tested, and the pEC50 was > 7.00. `Cc1cccc2cc(Cn3nc(C#C[C@@H](C)O)c4c(N)ncnc43)n(C3CC3)c(=O)c12` [Compound 100] was tested, and the pEC50 was > 6.00. `Cc1cccc2cc(Cn3nc(-c4cc(O)cc(F)c4)c4c(N)ncnc43)n(C3CC3)c(=O)c12` [Compound 101] was tested, and the pEC50 was > 7.00. With `Cc1cccc2cc(Cn3nc(-c4cccc(O)c4)c4c(N)ncnc43)n(C3CC3)c(=O)c12` [Compound 102] the pEC50 was > 7.00. For `Cc1cccc2cc(Cn3nc(I)c4c(N)ncnc43)n(-c3ccccc3OCCN3CCOCC3)c(=O)c12` [Compound 103], the pEC50 was > 6.00. For `Cc1cccc2cc(Cn3nc(I)c4c(N)ncnc43)n(C3CCC3)c(=O)c12` [Compound 105], the pEC50 was > 6.00. For `COc1cccc(-c2nn(Cc3cc4cccc(C)c4c(=O)n3-c3ccccc3C)c3ncnc(N)c23)c1` [Compound 106], the pEC50 was > 6.00. For `Cc1cccc2cc(Cn3nc(I)c4c(N)ncnc43)n(C)c(=O)c12` [Compound 107], the pEC50 was > 6.00. In the case of `Cc1cccc2cc(Cn3nc(-c4cc(O)cc(F)c4)c4c(N)ncnc43)n(-c3ccccc3OCCN3CCOCC3)c(=O)c12` [Compound 108], the pEC50 was > 7.00. With `Cc1cccc2cc(Cn3nc(-c4cccc(O)c4)c4c(N)ncnc43)n(-c3ccccc3OCCN3CCOCC3)c(=O)c12` [Compound 109] the pEC50 was > 7.00. In the case of `Cc1cccc2cc(Cn3nc(-c4cc(O)cc(F)c4)c4c(N)ncnc43)n(C3CCCCC3)c(=O)c12` [Compound 110], the pEC50 was > 6.00. `Cc1cccc2cc(Cn3nc(-c4cccc(O)c4)c4c(N)ncnc43)n(C3CCCCC3)c(=O)c12` [Compound 111] was tested, and the pEC50 was > 6.00. In the case of `Cc1cccc2cc(Cn3nc(C#C[C@@H](C)O)c4c(N)ncnc43)n(C3CCCCC3)c(=O)c12` [Compound 112], the pEC50 was > 5.00. In the case of `Cc1ccccc1-n1c(Cn2nc(-c3cc(O)cc(F)c3)c3c(N)nccc32)cc2cccc(C)c2c1=O` [Compound 113], the pEC50 was > 7.00. For `Cc1cccc2cc(Cn3nc(-c4cccc(O)c4)c4c(N)ncnc43)n(C3CCC3)c(=O)c12` [Compound 114], the pEC50 was > 6.00. With `Cc1cccc2cc(Cn3nc(-c4cc(O)cc(F)c4)c4c(N)ncnc43)n(C3CCC3)c(=O)c12` [Compound 115] the pEC50 was > 7.00. With `Cc1cccc2cc(Cn3nc(-c4ccc(Cl)c(O)c4)c4c(N)ncnc43)n(C(C)C)c(=O)c12` [Compound 123] the pEC50 was > 7.00. `Cc1cccc2cc(Cn3nc(-c4cccc(O)c4)c4c(N)ncnc43)n(C)c(=O)c12` [Compound 124] was tested, and the pEC50 was > 6.00. For `Cc1cccc2cc(Cn3nc(-c4cc(O)cc(F)c4)c4c(N)ncnc43)n(C)c(=O)c12` [Compound 125], the pEC50 was > 7.00. With `CCn1c(Cn2nc(-c3cccc(O)c3)c3c(N)ncnc32)cc2cccc(C)c2c1=O` [Compound 126] the pEC50 was > 7.00. `Cc1cccc2cc(Cn3nc(-c4cc(O)cc(F)c4)c4c(N)ncnc43)n(C3CCOCC3)c(=O)c12` [Compound 128] was tested, and the pEC50 was > 7.00. In the case of `CC(C)n1c(Cn2nc(-c3cccc(O)c3)c3c(N)ncnc32)cc2cccc(F)c2c1=O` [Compound 133], the pEC50 was > 6.00. For `CC(C)n1c(Cn2nc(-c3cc(O)cc(F)c3)c3c(N)ncnc32)cc2cccc(F)c2c1=O` [Compound 134], the pEC50 was > 7.00. With `CC(C)n1c(Cn2nc(-c3cccc(O)c3)c3c(N)ncnc32)cc2ccccc2c1=O` [Compound 135] the pEC50 was > 6.00. For `CC(C)n1c(Cn2nc(-c3cc(O)cc(F)c3)c3c(N)ncnc32)cc2ccccc2c1=O` [Compound 136], the pEC50 was > 7.00. For `CC(C)n1c(Cn2nc(-c3cccc(O)c3)c3c(N)ncnc32)cc2cccc(Cl)c2c1=O` [Compound 137], the pEC50 was > 7.00. For `CC(C)n1c(Cn2nc(-c3cc(O)cc(F)c3)c3c(N)ncnc32)cc2cccc(Cl)c2c1=O` [Compound 138], the pEC50 was > 7.00. For `Nc1ncnc2c1c(I)nn2Cc1cc2cccc(Cl)c2c(=O)n1C1CC1` [Compound 139], the pEC50 was > 7.00. `Nc1ncnc2c1c(-c1cccc(O)c1)nn2Cc1cc2cccc(Cl)c2c(=O)n1C1CC1` [Compound 141] was tested, and the pEC50 was > 7.00. `Nc1ncnc2c1c(-c1cc(O)cc(F)c1)nn2Cc1cc2cccc(Cl)c2c(=O)n1C1CC1` [Compound 142] was tested, and the pEC50 was > 7.00. For `Nc1ncnc2c1c(-c1cc(O)cc(F)c1)nn2Cc1cc2cccc(F)c2c(=O)n1-c1ccccc1F` [Compound 144], the pEC50 was > 7.00. For `Cc1ccccc1-n1c(Cn2nc(-c3ccc4nc(N)sc4c3)c3c(N)ncnc32)cc2cccc(C)c2c1=O` [Compound 145], the pEC50 was > 6.00. With `Cc1cccc2cc(Cn3nc(-c4cccc(O)c4)c4c(N)ncnc43)n(-c3ccccc3)c(=O)c12` [Compound 146] the pEC50 was > 7.00. For `Cc1cccc2cc(Cn3nc(-c4cc(O)cc(F)c4)c4c(N)ncnc43)n(-c3ccccc3)c(=O)c12` [Compound 147], the pEC50 was > 7.00. For `CNC(=O)Nc1nc2ccc(-c3nn(Cc4cc5cccc(C)c5c(=O)n4-c4ccccc4C)c4ncnc(N)c34)cc2s1` [Compound 148], the pEC50 was > 7.00. For `Cc1ccccc1-n1c(Cn2nc(-c3ccc4nc(N)ccc4c3)c3c(N)ncnc32)cc2cccc(C)c2c1=O` [Compound 149], the pEC50 was > 7.00. With `Cc1ccccc1-n1c(Cn2nc(-c3ccc4nc(N)ncc4c3)c3c(N)ncnc32)cc2cccc(C)c2c1=O` [Compound 150] the pEC50 was > 7.00. In the case of `Cc1ccccc1-n1c(Cn2nc(-c3ccc4ncnc(N)c4c3)c3c(N)ncnc32)cc2cccc(C)c2c1=O` [Compound 152], the pEC50 was > 6.00. In the case of `CC(=O)Nc1nc2ccc(-c3nn(Cc4cc5cccc(C)c5c(=O)n4C)c4ncnc(N)c34)cc2s1` [Compound 153], the pEC50 was > 7.00. For `CC(=O)Nc1nc2ccc(-c3nn(Cc4cc5cccc(C)c5c(=O)n4C(C)C)c4ncnc(N)c34)cc2s1` [Compound 154], the pEC50 was > 7.00. With `CC(=O)Nc1nc2ccc(-c3nn(Cc4cc5cccc(C)c5c(=O)n4C4CC4)c4ncnc(N)c34)cc2s1` [Compound 155] the pEC50 was > 7.00. In the case of `CC(=O)Nc1nc2ccc(-c3nn(Cc4cc5cccc(Cl)c5c(=O)n4C4CC4)c4ncnc(N)c34)cc2s1` [Compound 156], the pEC50 was > 7.00. For `CC(=O)Nc1nc2ccc(-c3nn(Cc4cc5cccc(Cl)c5c(=O)n4C(C)C)c4ncnc(N)c34)cc2s1` [Compound 157], the pEC50 was > 7.00. `CC(=O)Nc1nc2ccc(-c3nn(Cc4cc5cccc(F)c5c(=O)n4C(C)C)c4ncnc(N)c34)cc2s1` [Compound 158] was tested, and the pEC50 was > 7.00.
